According to patent US11702409B2, “Pyrazolyl derivatives useful as anti-cancer agents” (NOVARTIS AG, priority 2019, dated 2023):

Tests used:
[1] = target: KRasG12C (M1-K169, biotinylated on the N-terminus) (Homo sapiens (Human), UniProt P01116, G12C); experiment: Covalent competition assay (scintillation proximity assay, competition with radiolabeled covalent probe Compound B); assay type: binding; settings: covalent competition SPA assay, KRASG12C; read-out: IC50, titration of the non-labelled version of the probe
Outline: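 Biotinylated KRasG12C (M1-K169):GDP incubated 2 h with agitation with serially diluted compounds premixed with a fixed concentration of radiolabeled covalent probe; scintillation proximity read-out of competition for covalent modification. Buffer 20 mM Tris-HCl pH 7.5, 150 mM NaCl, 0.1 mM MgCl2, 0.01% Tween-20. IC50 from 4-parameter fit.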

KRasG12C = KRasG12C (Homo sapiens (Human), UniProt P01116, G12C); experiment: MS-based assay (% modification for a range of compound concentrations and time points); assay type: biochemical; settings: internally determined, non-labeled ligand; read-out: (kinact/KI)probe, second order rate constant for modification of KRasG12C

IC50 [1]: 0.5 µM
kinact/KI (KRasG12C): ~5000 M⁻¹ s⁻¹
Compound: C=CC(=O)Nc1ccc(-n2c(C)c(-c3c(C)ccc4[nH]ncc34)c3cccnc32)c(F)c1 [Compound A, N-(3-fluoro-4-(2-methyl-3-(5-methyl-1H-indazol-4-yl)-1H-pyrrolo[2,3-b]pyridin-1-yl)phenyl)acrylamide, reference compound]
